The results in this text go back to EP1976513B1 (priority 2006, dated 2007).

Read-outs that look alike come from different tables or passages of the source.

Assay [1] addresses T1, human dopamine reuptake transporter (Homo sapiens, UniProt Q01959).
T1 construct: expressed in transfected cells; host or cells: CHO-K1 or HEK293
In words: cell-based.

Assay [2] deals with human serotonin reuptake transporter (Homo sapiens, UniProt P31645). Briefly: cell-based.
Where [3] appears, read: recombinant human dopamine transporter (DAT), read-out: Human IC50 (nM) hDAT.
Setting [4] is: recombinant human serotonin transporter (SERT), read-out: Human IC50 (nM) hSERT.

T1 sequence (Q01959 whole entry): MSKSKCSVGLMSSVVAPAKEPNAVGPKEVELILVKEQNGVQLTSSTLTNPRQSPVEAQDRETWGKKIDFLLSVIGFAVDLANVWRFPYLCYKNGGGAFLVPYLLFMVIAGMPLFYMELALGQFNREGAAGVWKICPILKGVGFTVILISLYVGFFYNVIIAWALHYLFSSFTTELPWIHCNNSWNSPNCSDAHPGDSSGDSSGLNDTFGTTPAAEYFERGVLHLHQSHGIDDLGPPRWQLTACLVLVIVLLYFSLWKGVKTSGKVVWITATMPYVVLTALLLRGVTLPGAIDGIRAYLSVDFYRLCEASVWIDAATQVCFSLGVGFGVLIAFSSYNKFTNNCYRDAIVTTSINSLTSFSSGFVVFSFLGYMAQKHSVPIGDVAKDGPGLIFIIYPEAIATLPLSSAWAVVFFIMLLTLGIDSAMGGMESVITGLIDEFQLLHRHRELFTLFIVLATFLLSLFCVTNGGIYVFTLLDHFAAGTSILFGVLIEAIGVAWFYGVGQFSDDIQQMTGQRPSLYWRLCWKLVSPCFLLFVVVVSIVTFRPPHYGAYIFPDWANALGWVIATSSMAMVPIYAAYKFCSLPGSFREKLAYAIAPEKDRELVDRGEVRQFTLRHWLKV
human serotonin reuptake transporter, sequence (P31645 whole entry): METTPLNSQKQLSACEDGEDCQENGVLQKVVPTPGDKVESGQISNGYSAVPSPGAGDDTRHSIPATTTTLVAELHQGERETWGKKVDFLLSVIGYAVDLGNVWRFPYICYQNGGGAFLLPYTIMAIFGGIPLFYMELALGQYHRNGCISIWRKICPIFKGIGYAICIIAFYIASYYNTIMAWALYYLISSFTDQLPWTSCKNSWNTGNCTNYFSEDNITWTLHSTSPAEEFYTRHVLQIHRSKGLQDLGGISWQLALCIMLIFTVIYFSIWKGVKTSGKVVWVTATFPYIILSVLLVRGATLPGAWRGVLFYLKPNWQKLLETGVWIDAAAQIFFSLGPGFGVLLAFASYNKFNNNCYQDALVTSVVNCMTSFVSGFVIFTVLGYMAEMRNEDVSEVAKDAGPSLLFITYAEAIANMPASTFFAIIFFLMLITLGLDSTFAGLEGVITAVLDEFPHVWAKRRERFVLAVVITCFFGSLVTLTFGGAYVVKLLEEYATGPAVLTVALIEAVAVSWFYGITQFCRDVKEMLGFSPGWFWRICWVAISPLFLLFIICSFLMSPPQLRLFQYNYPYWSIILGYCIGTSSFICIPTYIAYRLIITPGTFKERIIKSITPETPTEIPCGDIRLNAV

On to `CNC(C)C1(c2cccc3ccccc23)CCCCC1` (single isomer, unassigned) [59 E2, N-methyl-1-(1-(naphthalen-1-yl)cyclohexyl)ethanamine], for which, in assay [1] (setting [3]), the IC50 (usually the concentration at which inhibition is half-maximal) was 3870 nM.
Turning to `NCC1(c2ccc(Cl)c(Cl)c2)CCCC(O)C1` (single isomer, unassigned) [184 E1, Cis-3-(aminomethyl)-3-(3,4-dichlorophenyl)cyclohexanol], the IC50 in assay [2] (setting [4]) was > 10000 nM.
For the compound `CN(C)C[C@]1(c2ccc(Cl)c(Cl)c2)CCC[C@H](O)C1` (relative stereo) [Compound 203, cis-3-(3,4-dichlorophenyl)-3-((dimethylamino)methyl)cyclohexanol], the IC50 in assay [1] (setting [3]) came out at 1.4 nM.
For the compound `CC(N)C1(c2ccc(-c3ccco3)cc2)CCCCC1` (stereo not drawn) [Compound 22, 1-(1-(4-(furan-2-yl)phenyl)cyclohexyl)ethanamine], the IC50 in assay [2] (setting [4]) was determined as 296 nM.
Consider `CNCC1(c2ccc(OC(F)(F)F)cc2)CCCCC1O` (single isomer, unassigned) [146 E2, trans-2-((Methylamino)methyl)-2-(4-(trifluoromethoxy)phenyl) cyclohexanol], for which, in assay [1] (setting [3]), the IC50 was > 10000 nM.
Consider `CCC(NC)C1(c2ccc(Cl)c(Cl)c2)CCCCC1` (single isomer, unassigned) [62 E1, 1-(1-(3,4-dichlorophenyl)cyclohexyl)-N-methylpropan-1-amine], for which the IC50 in assay [1] (setting [3]) was found to be 39 nM.
For `CNCC1(c2ccc(Cl)c(Cl)c2)CCCC(F)(F)C1` (single isomer, unassigned) [205 E1, 1-(1-(3,4-dichlorophenyl)-3,3-difluorocyclohexyl)-N-methylmethanamine], the IC50 in assay [2] (Human IC50 (nM) hSERT) was 4210 nM.
Regarding `CC(N)C1(c2ccc(-c3ccco3)cc2)CCCCC1` (single isomer, unassigned) [22 E2, 1-(1-(4-(furan-2-yl)phenyl)cyclohexyl)ethanamine], in assay [2] (setting [4]), the IC50 is 101 nM.
`CC(C)CC(N)C1(c2ccc(Cl)cc2)CCCCC1` (single isomer, unassigned) [21 E1, 1-(1-(4-chlorophenyl)cyclohexyl)-3-methylbutan-1-amine] yielded an IC50 in assay [2] (Human IC50 (nM) hSERT) of 9660 nM.
With `CCC1(O)CCC(CNC)(c2ccc(Cl)c(Cl)c2)CC1` (stereo not drawn) [Compound 282, 4-(3,4-dichlorophenyl)-1-ethyl-4-((methylamino)methyl)cyclohexanol], the IC50 in assay [1] (setting [3]) turned out to be 186 nM.
Take `CC(C)CC(N)C1(c2ccc(Cl)cc2)CCCCC1` (single isomer, unassigned) [21 E2, 1-(1-(4-chlorophenyl)cyclohexyl)-3-methylbutan-1-amine]: inhibition in assay [2] (Human IC50 (nM) hSERT) was half-maximal at 1240 nM (IC50).
For `CC1(O)CCC(CN)(c2ccc(Cl)c(Cl)c2)CC1` (stereo not drawn) [Compound 275, 4-(aminomethyl)-4-(3,4-dichlorophenyl)-1-methylcyclohexanol], in assay [2] (setting [4]), the IC50 is 1190 nM.
In the case of `CNCC1(c2ccc3ccccc3c2)CCC(F)CC1` (stereo not drawn) [Compound 236, 1-(4-fluoro-1-(naphthalen-2-yl)cyclohexyl)-N-methylmethanamine], in assay [1] (setting [3]), the IC50 came to 444 nM.
`CC(N)C1(c2ccc(OC(F)(F)F)cc2)CCCCC1` (stereo not drawn) [Compound 19, 1-(1-(4-(trifluoromethoxy)phenyl)cyclohexyl)ethanamine]: the IC50 in assay [2] (setting [4]) turned out to be 107 nM.
On the same count and under the same terms, in the case of `NCC1(c2ccc(Cl)c(Cl)c2)CCCC(O)C1` (single isomer, unassigned) [185 E1, Trans-3-(aminomethyl)-3-(3,4-dichlorophenyl)cyclohexanol] it was > 10000 nM.
Turning to `NCC1(c2ccc(Cl)c(Cl)c2)CCC(F)CC1` (stereo not drawn) [Compound 253, (1-(3,4-dichlorophenyl)-4-fluorocyclohexyl)methanamine], the IC50 in assay [1] (setting [3]) stood at 37 nM.
`CNCC1(c2ccc3ccccc3c2)CCC(F)CC1` (stereo not drawn) [Compound 232, 1-(4-fluoro-1-(naphthalen-2-yl)cyclohexyl)-N-methylmethanamine]: in assay [1] (setting [3]), the IC50 was 25 nM.
On to `CN(C)CC1(c2ccc(OC(F)(F)F)cc2)CCC(O)CC1` (stereo not drawn) [Compound 250, 4-((dimethylamino)methyl)-4-(4-(trifluoromethoxy)phenyl)cyclohexanol], for which, in assay [2] (setting [4]), the IC50 was 47 nM.
As to `NCC1(c2ccc(Cl)c(Cl)c2)CCCC(O)C1` (single isomer, unassigned) [184 E2, Cis-3-(aminomethyl)-3-(3,4-dichlorophenyl)cyclohexanol], the IC50 in assay [2] (setting [4]) was > 10000 nM.
Still for that read-out and setting: in the case of `CC(N)C1(c2ccc(OC(F)(F)F)cc2)CCCCC1` (single isomer, unassigned) [19 E2, 1-(1-(4-(trifluoromethoxy)phenyl)cyclohexyl)ethanamine] it was 398 nM.
For `COc1ccc(C2(CN(C)C)CCCCC2O)cc1` (single isomer, unassigned) [155 E2, Cis-2-((dimethylamino)methyl)-2-(4-methoxyphenyl)cyclohexanol], the IC50 in assay [1] (setting [3]) was > 10000 nM.
As to `CCC1(O)CCC(CNC)(c2ccc(Cl)c(Cl)c2)CC1` (stereo not drawn) [Compound 279, 4-(3,4-dichlorophenyl)-1-ethyl-4-((methylamino)methyl)cyclohexanol], in assay [1] (setting [3]), the IC50 worked out at 1450 nM.
On to `CNCC1(c2ccc(OC(F)(F)F)cc2)CCCCC1O` (single isomer, unassigned) [146 E1, trans-2-((Methylamino)methyl)-2-(4-(trifluoromethoxy)phenyl) cyclohexanol], for which the IC50 in assay [1] (setting [3]) was > 10000 nM.
As for `CC(N)C1(c2ccc(OC(F)(F)F)cc2)CCCCC1` (single isomer, unassigned) [19 E1, 1-(1-(4-(trifluoromethoxy)phenyl)cyclohexyl)ethanamine], the IC50 in assay [2] (setting [4]) came out at 1510 nM.
With `NCC1(c2ccc(Cl)c(Cl)c2)CCCC(O)C1` (single isomer, unassigned) [185 E2, Trans-3-(aminomethyl)-3-(3,4-dichlorophenyl)cyclohexanol], the half-inhibitory concentration (IC50) in assay [2] (setting [4]) is > 10000 nM.
Consider `NCC1(c2ccc(Cl)c(Cl)c2)CC=CCC1` (stereo not drawn) [Compound 71], for which, in assay [1] (Human IC50 (nM) hDAT), the IC50 was determined as 123 nM.
Consider `CNCC1(c2ccc(Cl)cc2)CCCCC1O` (single isomer, unassigned) [136 E1, trans-2-(4-chlorophenyl)-2-((methylamino)methyl)-cyclohexanol], for which the IC50 in assay [2] (setting [4]) was > 10000 nM.
As to `CNCC1(c2ccc(OC)cc2)CCCCC1O` (single isomer, unassigned) [140 E2, trans-2-(4-Methoxyphenyl)-2-((methylamino)methyl)cyclohexanol], the IC50 in assay [2] (setting [4]) is > 10000 nM.
The same measure, in the same setting: as for `CNCC1(c2ccc(Cl)c(Cl)c2)CCC(F)(F)CC1` [Compound 268, 1-(1-(3,4-dichlorophenyl)-4,4-difluorocyclohexyl)-N-methylmethanamine], the figure is 704 nM.
As to `CNCC1(c2cccc(C(F)(F)F)c2)CCCCC1` [Compound 104, N-methyl-1-(1-(3-(trifluoromethyl)phenyl)-cyclohexyl)methanamine], in assay [2] (Human IC50 (nM) hSERT, recombinant human serotonin transporter (SERT)), the IC50 was determined as 9490 nM.
As for `CNCC1(c2ccc3ccccc3c2)CCC(O)CC1` (stereo not drawn) [Compound 227, 4-((methylamino)methyl)-4-(naphthalen-2-yl)cyclohexanol], the IC50 in assay [1] (setting [3]) worked out at 5780 nM.
For the compound `CCC(NC)C1(c2ccc(Cl)c(Cl)c2)CCCCC1` (single isomer, unassigned) [62 E2, 1-(1-(3,4-dichlorophenyl)cyclohexyl)-N-methylpropan-1-amine], the IC50 in assay [1] (setting [3]) came to 4 nM.
Same read-out and setting: in the case of `CN(C)CC1(c2ccc(Cl)c(Cl)c2)CCCC(F)(F)C1` (single isomer, unassigned) [206 E1, 1-(1-(3,4-dichlorophenyl)-3,3-difluorocyclohexyl)-N,N-dimethylmethanamine] it was 59 nM.
Regarding `CCNCC1(c2ccc(Cl)c(Cl)c2)CCCCC1CO` (single isomer, unassigned) [169 E1, (2-(3,4-dichlorophenyl)-2-((ethylamino)methyl)-cyclohexyl)methanol], the IC50 in assay [2] (setting [4]) was 1100 nM.
As for `CN(C)CC1(c2ccc(Cl)c(Cl)c2)CCCC(F)(F)C1` (single isomer, unassigned) [206 E2, 1-(1-(3,4-dichlorophenyl)-3,3-difluorocyclohexyl)-N,N-dimethylmethanamine], the IC50 in assay [1] (setting [3]) was < 1 nM.
On to `CNCC1(c2ccc(Cl)cc2)CCCCC1O` (single isomer, unassigned) [136 E2, trans-2-(4-chlorophenyl)-2-((methylamino)methyl)-cyclohexanol], for which the IC50 in assay [2] (setting [4]) was > 10000 nM.
Turning to `CNCC1(c2ccc(Cl)c(Cl)c2)CCCC(F)(F)C1` (single isomer, unassigned) [205 E2, 1-(1-(3,4-dichlorophenyl)-3,3-difluorocyclohexyl)-N-methylmethanamine], in assay [2] (Human IC50 (nM) hSERT), half-maximal inhibition (IC50) was put at 1710 nM.
As to `COc1ccc(C2(CN(C)C)CCCCC2O)cc1` (single isomer, unassigned) [155 E1, Cis-2-((dimethylamino)methyl)-2-(4-methoxyphenyl)cyclohexanol], the IC50 in assay [1] (setting [3]) is > 10000 nM.
For `CC1(O)CCC(CN)(c2ccc(Cl)c(Cl)c2)CC1` (stereo not drawn) [Compound 272, 4-(aminomethyl)-4-(3,4-dichlorophenyl)-1-methylcyclohexanol], the IC50 in assay [2] (setting [4]) was > 10000 nM.
With `NC[C@]1(c2ccc(Cl)c(Cl)c2)CC[C@H](O)CC1` [Compound 299, (1s,4s)-4-(aminomethyl)-4-(3,4-dichlorophenyl)cyclohexanol], the IC50 in assay [1] (setting [3]) amounted to 720 nM.
Same read-out and setting: in the case of `NCC1(c2ccc(F)c(Cl)c2)CCCCC1` [Compound 32, (1-(3-chloro-4-fluorophenyl)cyclohexyl)-methanamine] it was 424 nM.
For `CC(N)C1(c2ccc(-c3ccco3)cc2)CCCCC1` (single isomer, unassigned) [22 E1, 1-(1-(4-(furan-2-yl)phenyl)cyclohexyl)ethanamine], the IC50 in assay [2] (setting [4]) is 63 nM.
Take `CC(C)CC(N)C1(c2ccc(Cl)cc2)CCCCC1` (stereo not drawn) [Compound 21, 1-(1-(4-chlorophenyl)cyclohexyl)-3-methylbutan-1-amine]: half-maximal inhibition in assay [2] (Human IC50 (nM) hSERT) (IC50) required 2100 nM.
On to `CNCC1(c2ccc(OC(F)(F)F)cc2)CCC(C)(O)CC1` (stereo not drawn) [Compound 247, 1-methyl-4-((methylamino)methyl)-4-(4-(trifluoromethoxy)phenyl)cyclohexanol], for which the IC50 in assay [2] (setting [4]) was found to be 707 nM.
`CCNCC1(c2ccc(Cl)c(Cl)c2)CCCCC1CO` (single isomer, unassigned) [169 E2, (2-(3,4-dichlorophenyl)-2-((ethylamino)methyl)-cyclohexyl)methanol]: in assay [2] (setting [4]), the IC50 turned out to be 332 nM.
